Reference: US20240208992A1, “MACROCYCLES AS CFTR MODULATORS” (Idorsia Pharmaceuticals Ltd, priority 2021, published 2024)

Target: human F508del-CFTR (Homo sapiens, UniProt P13569, DEL508-508)
Experiment: F508del-CFTR cell surface expression (corrector activity), DiscoveRx ß-galactosidase complementation chemiluminescence assay in recombinant U2OS cell line;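 further: U2OS cells co-expressing ProLink-tagged F508del-CFTR and a membrane-anchored enzyme acceptor, where more surface CFTR restores β-galactosidase activity measured by chemiluminescence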
Conditions: U2OS cell line, 16h compound incubation; for EC50: EC50, F508del-CFTR cell surface expression, geomean values; for Emax: U2OS, in relation to the Emax of the corrector lumacaftor (=100%), arithmetic mean values

human F508del-CFTR, sequence (P13569 with tags, fused parts or gaps DEL508-508): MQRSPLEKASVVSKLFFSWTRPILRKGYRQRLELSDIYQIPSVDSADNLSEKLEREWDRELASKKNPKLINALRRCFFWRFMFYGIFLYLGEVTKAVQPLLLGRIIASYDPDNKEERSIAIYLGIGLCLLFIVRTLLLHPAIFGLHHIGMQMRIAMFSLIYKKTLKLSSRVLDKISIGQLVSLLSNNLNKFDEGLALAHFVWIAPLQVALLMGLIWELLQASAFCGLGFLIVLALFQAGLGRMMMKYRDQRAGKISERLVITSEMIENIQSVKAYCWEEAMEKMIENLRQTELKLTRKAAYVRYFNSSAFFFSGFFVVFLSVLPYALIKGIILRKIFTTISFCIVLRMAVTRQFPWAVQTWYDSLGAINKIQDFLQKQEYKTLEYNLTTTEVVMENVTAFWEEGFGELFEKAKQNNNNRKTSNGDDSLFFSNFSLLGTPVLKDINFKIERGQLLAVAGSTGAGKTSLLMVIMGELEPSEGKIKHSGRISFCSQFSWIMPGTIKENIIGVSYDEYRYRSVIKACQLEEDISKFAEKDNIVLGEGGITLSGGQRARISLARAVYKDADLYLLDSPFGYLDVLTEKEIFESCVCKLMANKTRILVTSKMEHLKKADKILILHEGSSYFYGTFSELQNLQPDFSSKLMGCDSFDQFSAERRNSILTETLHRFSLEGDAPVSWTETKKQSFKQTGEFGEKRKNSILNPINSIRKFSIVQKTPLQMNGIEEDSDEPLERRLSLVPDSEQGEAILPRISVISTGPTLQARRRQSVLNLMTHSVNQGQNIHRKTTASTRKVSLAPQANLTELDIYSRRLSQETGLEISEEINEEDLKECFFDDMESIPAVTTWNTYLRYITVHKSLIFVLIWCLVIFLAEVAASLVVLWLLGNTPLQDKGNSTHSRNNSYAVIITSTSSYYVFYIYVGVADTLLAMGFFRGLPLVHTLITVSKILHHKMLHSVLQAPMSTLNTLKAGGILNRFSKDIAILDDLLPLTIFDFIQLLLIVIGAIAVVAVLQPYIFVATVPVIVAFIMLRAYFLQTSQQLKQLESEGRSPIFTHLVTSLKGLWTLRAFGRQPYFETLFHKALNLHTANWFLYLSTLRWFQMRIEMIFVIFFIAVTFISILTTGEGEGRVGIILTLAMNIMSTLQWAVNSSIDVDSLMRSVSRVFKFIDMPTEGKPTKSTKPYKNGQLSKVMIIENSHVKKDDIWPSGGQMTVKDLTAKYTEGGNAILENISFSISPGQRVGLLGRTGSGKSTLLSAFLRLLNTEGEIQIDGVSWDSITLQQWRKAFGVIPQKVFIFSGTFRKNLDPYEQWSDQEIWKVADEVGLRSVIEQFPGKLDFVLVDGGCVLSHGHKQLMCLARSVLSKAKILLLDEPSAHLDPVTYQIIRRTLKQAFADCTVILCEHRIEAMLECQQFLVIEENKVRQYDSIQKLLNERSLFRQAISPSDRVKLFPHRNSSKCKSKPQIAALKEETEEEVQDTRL

SMILES | EC50 | Emax
COc1cccc(CCNC(=O)[C@@H]2CC(=O)N(C)[C@@H](CC(C)C)C(=O)N3CC=CC[C@@H]3C(=O)N[C@H](Cc3ccccc3)COc3ccc4ccccc4c3C(=O)N2)c1 [Example 376, (4aR,7R,18S,22S)-7-benzyl-22-isobutyl-N-(3-methoxyphenethyl)-21-methyl-5,16,20,23-tetraoxo-4,4a,5,6,7,8,16,17,18,19,20,21,22,23-tetradecahydro-1H-naphtho[1,2-p]pyrido[2,1-f][1]oxa[4,7,10,14]tetraazacycloheptadecine-18-carboxamide] | 0.156 µM | 284%
COc1cc(CCNC(=O)[C@@H]2CC(=O)N(C)[C@@H](CC(C)C)C(=O)N3CCCC[C@@H]3C(=O)N[C@H](Cc3ccccc3)COc3ccc4nc(C)n(C)c4c3C(=O)N2)cc(OC)c1 [Example 377, (8S,12S,18aR,21R)-21-benzyl-N-(3,5-dimethoxyphenethyl)-12-isobutyl-4,5,11-trimethyl-6,10,13,19-tetraoxo-6,7,8,9,10,11,12,13,16,17,18,18a,19,20,21,22-hexadecahydro-5H,15H-imidazo[4′,5′:5,6]benzo[1,2-p]pyrido[2,1-f][1]oxa[4,7,10,14]tetraazacycloheptadecine-8-carboxamide] | 0.704 µM | 111%
CC(C)C[C@H]1C(=O)N2CCOC[C@@H]2C(=O)N[C@H](Cc2ccccc2)COc2ccc3ccccc3c2C(=O)N[C@H](C(=O)NCCc2cccc(Br)c2)CC(=O)N1C [Example 378, (4aR,7R,18S,22S)-7-benzyl-N-(3-bromophenethyl)-22-isobutyl-21-methyl-5,16,20,23-tetraoxo-1,2,4,4a,5,6,7,8,16,17,18,19,20,21,22,23-hexadecahydronaphtho[1,2-p][1,4]oxazino[3,4-f][1]oxa[4,7,10,14]tetraazacycloheptadecine-18-carboxamide] | 0.045 µM | 138%
Cc1nc2ccc3c(c2o1)C(=O)N[C@H](C(=O)NCCc1ccc2c(c1)OCO2)CC(=O)N(C)[C@@H](CC(C)C)C(=O)N(CCC1CCCCC1)CC(=O)N[C@H](Cc1ccccc1)CO3 [Example 379, (8R,14S,18S)-N-(2-(benzo[d][1,3]dioxol-5-yl)ethyl)-8-benzyl-12-(2-cyclohexylethyl)-14-isobutyl-2,15-dimethyl-10,13,16,20-tetraoxo-7,8,9,10,11,12,13,14,15,16,17,18,19,20-tetradecahydrooxazolo[4′,5′:5,6]benzo[1,2-p][1]oxa[4,7,10,14]tetraazacycloheptadecine-18-carboxamide] | 0.076 µM | 312%
COc1cccc(CCNC(=O)[C@@H]2CC(=O)N(C)[C@@H](CC(C)C)C(=O)N(CCC3CCCCC3)CC(=O)N[C@H](Cc3ccccc3)COc3ccc4nc(C)oc4c3C(=O)N2)c1 [Example 380, (8R,14S,18S)-8-benzyl-12-(2-cyclohexylethyl)-14-isobutyl-N-(3-methoxyphenethyl)-2,15-dimethyl-10,13,16,20-tetraoxo-7,8,9,10,11,12,13,14,15,16,17,18,19,20-tetradecahydrooxazolo[4′,5′:5,6]benzo[1,2-p][1]oxa[4,7,10,14]tetraazacycloheptadecine-18-carboxamide] | 0.065 µM | 325%
[2H]C([2H])([2H])Oc1cccc(CCNC(=O)[C@@H]2CC(=O)N(C)[C@@H](CC(C)C)C(=O)N(CCC3CCCCC3)CC(=O)N[C@H](Cc3ccccc3)COc3ccc4nc(C)oc4c3C(=O)N2)c1 [Example 381, (8R,14S,18S)-8-benzyl-12-(2-cyclohexylethyl)-14-isobutyl-N-(3-(methoxy-d3)phenethyl)-2,15-dimethyl-10,13,16,20-tetraoxo-7,8,9,10,11,12,13,14,15,16,17,18,19,20-tetradecahydrooxazolo[4′,5′:5,6]benzo[1,2-p][1]oxa[4,7,10,14]tetraazacycloheptadecine-18-carboxamide] | 0.068 µM | 322%
CC(C)C[C@H]1C(=O)N(CCC2CCCCC2)CC(=O)N[C@H](Cc2ccccc2)COc2cnc3c(F)cccc3c2C(=O)N[C@H](C(=O)NCCc2ccc3c(c2)OCO3)CC(=O)N1C [Example 382, (3S,7S,13R)-N-(2-(benzo[d][1,3]dioxol-5-yl)ethyl)-13-benzyl-9-(2-cyclohexylethyl)-18-fluoro-7-isobutyl-6-methyl-1,5,8,11-tetraoxo-1,2,3,4,5,6,7,8,9,10,11,12,13,14-tetradecahydro-[1]oxa[4,7,10,14]tetraazacycloheptadecino[17,16-c]quinoline-3-carboxamide] | 0.044 µM | 264%
COc1cccc(CCNC(=O)[C@@H]2CC(=O)N(C)[C@@H](CC(C)C)C(=O)N(CCC3CCCCC3)CC(=O)N[C@H](Cc3ccccc3)COc3cnc4c(F)cccc4c3C(=O)N2)c1 [Example 383, (3S,7S,13R)-13-benzyl-9-(2-cyclohexylethyl)-18-fluoro-7-isobutyl-N-(3-methoxyphenethyl)-6-methyl-1,5,8,11-tetraoxo-1,2,3,4,5,6,7,8,9,10,11,12,13,14-tetradecahydro-[1]oxa[4,7,10,14]tetraazacycloheptadecino[17,16-c]quinoline-3-carboxamide] | 0.065 µM | 317%
[2H]C([2H])([2H])Oc1cccc(CCNC(=O)[C@@H]2CC(=O)N(C)[C@@H](CC(C)C)C(=O)N(CCC3CCCCC3)CC(=O)N[C@H](Cc3ccccc3)COc3cnc4c(F)cccc4c3C(=O)N2)c1 [Example 384, (3S,7S,13R)-13-benzyl-9-(2-cyclohexylethyl)-18-fluoro-7-isobutyl-N-(3-(methoxy-d3)phenethyl)-6-methyl-1,5,8,11-tetraoxo-1,2,3,4,5,6,7,8,9,10,11,12,13,14-tetradecahydro-[1]oxa[4,7,10,14]tetraazacycloheptadecino[17,16-c]quinoline-3-carboxamide] | 0.054 µM | 282%
COc1cccc(CCNC(=O)[C@@H]2CC(=O)N(C)[C@@H](CC(C)C)C(=O)N(C)C3(CC3)C(=O)N[C@H](Cc3ccccc3)COc3ccc4ccccc4c3C(=O)N2)c1 [Example 385, (3′S,7′S,13′R)-13′-benzyl-7′-isobutyl-N-(3-methoxyphenethyl)-6′,9′-dimethyl-1′,5′,8′,11′-tetraoxo-2′,3′,4′,5′,6′,7′,8′,9′,11′,12′,13′,14′-dodecahydro-1′H-spiro[cyclopropane-1,10′-naphtho[1,2-p][1]oxa[4,7,10,14]tetraazacycloheptadecine]-3′-carboxamide] | 0.191 µM | 326%
COc1cccc(CCNC(=O)[C@@H]2CC(=O)N(C)[C@@H](CC(C)C)C(=O)NC3(CC3)C(=O)N[C@H](Cc3ccccc3)COc3ccc4ccccc4c3C(=O)N2)c1 [Example 386, (3′S,7′S,13′R)-13′-benzyl-7′-isobutyl-N-(3-methoxyphenethyl)-6′-methyl-1′,5′,8′,11′-tetraoxo-2′,3′,4′,5′,6′,7′,8′,9′,11′,12′,13′,14′-dodecahydro-1′H-spiro[cyclopropane-1,10′-naphtho[1,2-p][1]oxa[4,7,10,14]tetraazacycloheptadecine]-3′-carboxamide] | 0.393 µM | 149%
